The values below come from US10278973B2, “Hydroxyl purine compounds and use thereof” (GUANGDONG RAYNOVENT BIOTECH CO., LTD., priority 2015, dated 2019).

Where two headings read alike, the source gives them in different places.

Test [1] addresses T1, Full length human PDE2A protease (Homo sapiens, UniProt O00408).
T1 construct: Full length human PDE2A protease; GST (N); host or cells: insect Sf9 cells (baculovirus)
As to the kind of experiment: In vitro evaluation of PDE2 phosphodiesterase inhibitory activity (Transcreener AMP2/GMP2 fluorescence polarization). In kind it is biochemical. The procedure: In Vitro Evaluation of PDE2 Phosphodiesterase Inhibitory Activity Experimental objectives: To detect the concentration of AMP/GMP produced in the reaction system by measuring the fluorescence intensity of the fluorescent dye AlexaFluor 633 substituted on AMP/GMP antibody and to calculate the PDE2 phosphodiesterase inhibitory IC50 value of the test compound. Test buffer solution: 10 mM Tris-HCl, pH 7.5, 5 mM MgCl2, 0.01% Brij 35, 1 mM DTT, and 1% DMSO. Enzyme: Full length human PDE2A protease expressed and recombined in insect Sf9 cells with baculovirus using N-terminal GST tag […] Transcreener® AMP^2/GMP^2 antibody, AMP2/GMP2 AlexaFluor 633 fluorescent dye The enzyme solution was prepared with freshly prepared buffer solution and then added to the reaction wells. The DMSO solution of the test compound was added by Echo550 non-contact nanoscale sonicate pipetting system and preincubated for 10 minutes at room temperature. The reaction was initiated by addition of substrate (1 μM cGMP) and allowed to react for one hour at room temperature. The detection system (Transcreener® AMP^2/GMP^2 antibody, AMP2/GMP2 AlexaFluor 633 fluorescent dye) was then added and reacted for 90 minutes at room temperature before fluorescence polarization was detected using Ex/Em 620/688. The intensity of fluorescence polarization was converted to nM concentration by the AMP/GMP standard curve and then relative inhibition of enzyme activity relative to DMSO blank was calculated. IC50 values and curves were calculated using the Prism software package (GraphPad Software, San Diego Calif., USA)
A general note: In fluorescence polarisation assays a small probe gives low polarisation when free and higher when bound to something large.

For test [2], the system named is LPS-induced expression of TNF-α in rat blood. Kind of test: In vitro effect of the compound on LPS-induced expression of TNF-α in rat blood (ELISA). It is filed as cell-based, Sprague Dawley rats. Conditions: final compound concentration 100 μM, 5 hours, plasma TNF-α by ELISA; for inhibition at 100 µM: read-out: TNF-α inhibitory ratio. The arrangement: key to TNF-α inhibitory ratio: 80% ≥ + > 60%; ++ > 80%; — N/A. From the text:
Experimental Example 2: In Vitro Evaluation of the Effect of the Compound on LPS-Induced Expression of TNF-α in Rat Blood
Experimental Objectives: To detect in vitro the effect of the test compound on LPS-induced expression of TNF-α in rat blood and evaluate the inhibitory effect of the compound on LPS-induced expression of TNF-α in rat blood.
Sprague Dawley rats (male, 210-260 g, 8-10 weeks old, Shanghai Slack)
Rat TNF-alpha Quantikine ELISA Kit (R & D, #SRTA00)
A solution of the test compound with a concentration of 1 mM was prepared and 40 μL (final compound concentration was 100 μM) was added to a 48-well cell culture plate. Rats were anesthetized with isoflurane and blood was collected from the heart (heparin anticoagulation). The blood was added to the 48-well cell plate to which the test compound has been added, with 320 μL per well. The 48-well plate was placed in a cell incubator, incubated for 30 minutes and then removed, added with 40 μL LPS solution (100 μg/mL), mixed and placed in the incubator to continue the incubation. 5 hours later, the 48-well plate was removed and the blood sample was transferred to a 1.5 mL centrifuge tube and centrifuged in a centrifuge (4,500 rpm, 4° C., 5 minutes). The plasma was separated from the supernatant, frozen quickly after packing and stored in −80° C. refrigerator. The next day the R&D ELISA kit was used to measure TNF-α levels in plasma samples according to the instructions of the kit.
For orientation: ELISA stands for enzyme-linked immunosorbent assay.

[3] abbreviates: recombinant full length human PDE2A, substrate 1 μM cGMP, 1 hour at room temperature, read-out: PDE2 phosphodiesterase inhibitory activity.

T1 sequence (O00408 whole entry): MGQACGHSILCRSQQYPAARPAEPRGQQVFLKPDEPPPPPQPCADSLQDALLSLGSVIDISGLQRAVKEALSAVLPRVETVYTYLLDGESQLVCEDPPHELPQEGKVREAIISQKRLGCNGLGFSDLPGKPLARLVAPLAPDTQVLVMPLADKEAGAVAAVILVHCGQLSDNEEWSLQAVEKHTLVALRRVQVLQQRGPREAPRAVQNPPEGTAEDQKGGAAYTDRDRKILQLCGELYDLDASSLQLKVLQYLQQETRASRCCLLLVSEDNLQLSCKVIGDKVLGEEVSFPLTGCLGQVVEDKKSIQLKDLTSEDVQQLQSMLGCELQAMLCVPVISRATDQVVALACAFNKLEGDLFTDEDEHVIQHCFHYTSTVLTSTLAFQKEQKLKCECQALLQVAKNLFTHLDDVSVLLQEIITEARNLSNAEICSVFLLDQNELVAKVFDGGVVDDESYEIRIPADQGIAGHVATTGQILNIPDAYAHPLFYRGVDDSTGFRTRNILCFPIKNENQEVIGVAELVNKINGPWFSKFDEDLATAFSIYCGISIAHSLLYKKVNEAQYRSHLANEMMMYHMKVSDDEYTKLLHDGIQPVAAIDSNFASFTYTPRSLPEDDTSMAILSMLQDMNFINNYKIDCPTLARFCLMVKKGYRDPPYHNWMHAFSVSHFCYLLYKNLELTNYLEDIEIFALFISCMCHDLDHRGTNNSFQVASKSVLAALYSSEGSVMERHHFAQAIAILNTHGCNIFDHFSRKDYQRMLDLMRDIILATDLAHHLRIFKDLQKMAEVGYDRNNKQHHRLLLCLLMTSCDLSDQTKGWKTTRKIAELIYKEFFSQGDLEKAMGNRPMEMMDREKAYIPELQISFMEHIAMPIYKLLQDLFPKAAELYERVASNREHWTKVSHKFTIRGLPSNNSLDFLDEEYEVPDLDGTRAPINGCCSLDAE

`CC(C)c1cc(Cn2c(=O)c3c(ncn3CC3CC3)n(C)c2=O)on1` [Example 59, 7-(Cyclopropylmethyl)-1-((3-isopropylisoxazol-5-yl)methyl)-3-methyl-1H-purine-2,6(3H,7H)-dione]: the IC50 in test [1] (setting [3]) lay within 1 to 10 µM. In addition, the inhibition at 100 µM in test [2] was more than 80%.
Consider `Cc1cc(CCCCn2c(=O)c3c(ncn3C)n(C)c2=O)on1` [Example 19, 3,7-Dimethyl-1-(4-(3-methylisoxazol-5-yl)butyl)-1H-purine-2,6(3H,7H)-dione], for which the IC50 in test [1] lay within 10 to 50 µM. Besides, in test [2], the TNF-α inhibitory ratio entry is listed as “—”.
On to `Cn1cnc2c1c(=O)n(CCCN1CCCC1=O)c(=O)n2C` [Example 3, 3,7-Dimethyl-1-(3-(2-oxopyrrolidin-1-yl)propyl)-1H-purine-2,6(3H,7H)-dione], for which, in test [2], the TNF-α inhibitory ratio entry is given as “—”.
Regarding `Cc1cc(CCCCn2cnn3cnc(CC(C)C)c3c2=O)on1` [Example 82, 5-isobutyl-3-(4-(3-methylisoxazol-5-yl)butyl)imidazo[5,1-F] [1,2,4]triazin-4-one], the IC50 in test [1] (setting [3]) was in the range of 1 to 10 µM. For the same molecule, the inhibition at 100 µM in test [2] lay within 60 to 80%.
Turning to `CC(C)c1cc(Cn2c(=O)c3c(ncn3C)n(C)c2=O)on1` [Example 15, 1-((3-Isopropylisoxazol-5-yl)methyl)-3,7-dimethyl-1H-purine-2,6(3H,7H)-dione], the IC50 in test [1] (setting [3]) lay within 1 to 10 µM. The inhibition at 100 µM in test [2] was in the range of 60 to 80%.
For `Cc1cc(CCCCn2c(=O)c3cccnc3n(C)c2=O)on1` [Example 89, 1-Methyl-3-[4-(3-methylisoxazol-5-yl)butyl]pyrido[2,3-d]pyrimidine-2,4-dione], the IC50 in test [1] (setting [3]) lay within 10 to 50 µM. The inhibition at 100 µM in test [2] was more than 80%.
For `Cc1cc(C2CCC(n3c(=O)c4c(ncn4C)n(C)c3=O)CC2)on1` (centres unmarked) [Example 27, 3,7-Dimethyl-1-(4-(3-methylisoxazol-5-yl)cyclohexyl)-1H-purine-2,6(3H,7H)-dione], in test [1] (setting [3]), the IC50 lay in the range of 10 to 50 µM. Also, the TNF-α inhibitory ratio entry in test [2] is reported as “—”.
The corresponding values for `Cc1nc(C)c(CCn2c(=O)c3c(ncn3C)n(C)c2=O)s1` [Example 31, 1-(2-(2,4-Dimethylthiazol-5-yl)ethyl)-3,7-dimethyl-1H-purine-2,6(3H,7H)-dione] are 1 to 10 µM and “—”.
With `Cc1noc(C)c1Cn1c(=O)c2c(ncn2C)n(C)c1=O` [Example 25, 1-((3,5-Dimethylisoxazol-4-yl)methyl)-3,7-dimethyl-1H-purine-2,6(3H,7H)-dione], the IC50 in test [1] (setting [3]) was 10 to 50 µM. Moreover, the TNF-α inhibitory ratio result in test [2] is “—”.
